Reference: patent US20250313653A1, “GUEST/HOST INCLUSION COMPLEXES CONTAINING S-NITROSOGLUTATHIONE AND METHODS OF USE THEREOF” (VIRGINIA COMMONWEALTH UNIVERSITY, priority 2022, published 2025)
“And” between values parts separate entries of the source, which are not always exact repeats. Equal entries are not always repeated. “Also recorded” adds a separate entry of the source.

Tests used:
[1] = GSNO thermal decomposition via UV-Vis absorption spectroscopy; type: physicochemical; details: for order of enhancement of GSNO stability (reduced decomposition reactivity) by the host CD: 0.1 M GSNO solution containing 0.1 M CD, pH 7.4, 37° C.; for stabilization effect on GSNO (remaining GSNO after 48 h): 2-day experiment, 0.05 M GSNO in 0.05 M PB with 0.1 M CD derivative, dark, 37° C.
Experimental: GSNO was synthesized by nitrosation of reduced L-glutathione in acidified nitrite as previously reported.^52 After collecting GSNO precipitates and washing them using cold water and acetone, GSNO powder was vacuum dried for 4 h and stored at −20° C. GSNO powders were dissolved in phosphate buffer (PB) containing the same mole of Na2HPO4 before the pH adjustment. For example, the formal concentration of Na2HPO4 is 0.1 M when the GSNO concentration is 0.1 M. One hundred μM EDTA was always added to each solution before the solution pH was finally adjusted to 7.4 via NaOH. EDTA is a chelating agent to mask Cu^2+, a S-nitrosothiol catalyst that may exist in solvents and chemicals as an impurity.^53 For solutions with reactive agents, BSA, ascorbic acid, or cysteine was added before the pH adjustment. To prepare GSNO-CD solutions, appropriate amounts of CD powders were dissolved into the GSNO solutions prior to the pH adjustment.
Aqueous GSNO solutions were contained in 1.5 mL disposable polystyrene cuvettes. The cuvette was caped and further sealed with parafilm. The concentrations of GSNO during storage at 37° C. or 25° C. in the dark were monitored by a UV-vis spectrophotometer (Go Direct® Fluorescence/UV-VIS Spectrophotometer) at a wavelength of 545 nm. A 4 W LED white light was used as the light source for the photodecomposition experiment at room temperature. The distance between the light source and the cuvettes was approximately 10 cm. All GSNO decomposition experiments were triplicated, and the GSNO concentration was expressed as mean±standard deviation.

fibroblast L929 cells = assay: Cytotoxicity test (MTS assay) of lock-solution-filled silicone tubes; type: cell-based, mouse; details: 24-h incubation of L929 cells with silicone tubes filled with the lock solution
Experimental: L929 murine fibroblast cells were suspended in complete media (DMEM with 1% penicillin/streptomycin and 10% FBS) before being seeded in a 24-well plate at a concentration of 5×10^5 cells per well. After 24 h of incubation, the attached cells in each well were incubated in fresh media containing a sterilized 1-cm silicone tube (HelixMark® 60-011-07) filled with a lock solution with buffer, GSNO, or GSNO-αCD and with both ends sealed. MTS assays were performed following the manufacturer's procedure after an additional 24-h incubation. Absorbance at 490 nm was measured by a Cytation 3 imaging plate reader (Biotek).

[2] = in water; cited from earlier work

Molecule | order of enhancement of GSNO stability (reduced decomposition reactivity) by the host CD [1] | stabilization effect on GSNO (remaining GSNO after 48 h) [1] | also measured
OC[C@H]1O[C@@H]2O[C@H]3[C@H](O)[C@@H](O)[C@@H](O[C@H]4[C@H](O)[C@@H](O)[C@@H](O[C@H]5[C@H](O)[C@@H](O)[C@@H](O[C@H]6[C@H](O)[C@@H](O)[C@@H](O[C@H]7[C@H](O)[C@@H](O)[C@@H](O[C@H]8[C@H](O)[C@@H](O)[C@@H](O[C@H]9[C@H](O)[C@@H](O)[C@@H](O[C@H]1[C@H](O)[C@H]2O)O[C@@H]9CO)O[C@@H]8CO)O[C@@H]7CO)O[C@@H]6CO)O[C@@H]5CO)O[C@@H]4CO)O[C@@H]3CO [γCD, gamma cyclodextrin] | αCD>γCD>hydroxypropyl βCD; also recorded: αCD>γCD>HP βCD |  | 
2-hydroxypropyl alpha cyclodextrin [2-hydroxypropyl αCD] |  | significant stabilization effect | 
CC(O)COC[C@H]1O[C@@H]2O[C@H]3[C@H](O)[C@@H](O)[C@@H](O[C@H]4[C@H](O)[C@@H](O)[C@@H](O[C@H]5[C@H](O)[C@@H](O)[C@@H](O[C@H]6[C@H](O)[C@@H](O)[C@@H](O[C@H]7[C@H](O)[C@@H](O)[C@@H](O[C@H]8[C@H](O)[C@@H](O)[C@@H](O[C@H]1[C@H](O)[C@H]2O)O[C@@H]8COCC(C)O)O[C@@H]7COCC(C)O)O[C@@H]6COCC(C)O)O[C@@H]5COCC(C)O)O[C@@H]4COCC(C)O)O[C@@H]3COCC(C)O (stereo partly drawn) [HP βCD, 2-hydroxypropyl βCD] | αCD>γCD>HP βCD |  | order of enhancement of GSNO stability (reduced decomposition reactivity) by the host CD ([1]; listed as hydroxypropyl βCD): αCD>γCD>hydroxypropyl βCD
methyl alpha cyclodextrin [methyl αCD] |  | significant stabilization effect | 
OC[C@H]1O[C@@H]2O[C@H]3[C@H](O)[C@@H](O)[C@@H](O[C@H]4[C@H](O)[C@@H](O)[C@@H](O[C@H]5[C@H](O)[C@@H](O)[C@@H](O[C@H]6[C@H](O)[C@@H](O)[C@@H](O[C@H]7[C@H](O)[C@@H](O)[C@@H](O[C@H]1[C@H](O)[C@H]2O)O[C@@H]7CO)O[C@@H]6CO)O[C@@H]5CO)O[C@@H]4CO)O[C@@H]3CO [αCD, alpha cyclodextrin] | αCD>γCD>hydroxypropyl βCD; also recorded: αCD>γCD>HP βCD | best | cytotoxicity / cell viability (MTS) (fibroblast L929 cells): no difference in the cell viability
CC(=O)N[C@H](C(=O)O)C(C)(C)SN=O (racemic) [S-Nitroso-N-acetylpenicillamine] |  |  | aqueous solubility [2]: 2.1 mg/mL and < 0.01 M
